Laboratory results: patent publication US10774083B2, “Heterocyclic amide compound” (TAKEDA PHARMACEUTICAL COMPANY LIMITED, priority 2016, dated 2020)

Experiments:
[1] = system: human ovarian cancer cells A2780; assay: proliferation inhibitory activity against human ovarian cancer cell A2780 (CellTiter-Glo); type: cell-based; conditions: A2780, 72 h, 1 μM test compound, 3 days of culture, read-out: proliferation inhibitory rate (%) of A2780 cells
Experimental: The proliferation inhibitory activity of the compound of the present invention against human ovarian cancer cell A2780 was evaluated by the following method.
Human ovarian cancer cells A2780 were seeded in a 384 well culture plate at 1000 cells in 30 μL of medium per well by using RPMI-1640 medium (Wako Pure Chemical Industries, Ltd.) containing 10% fetal bovine serum and penicillin/streptomycin. The next day, 10 μL of RPMI-1640 medium containing the test compound was added to the cells. After 3 days of culture, 20 μL of CellTiter-Glo Luminescent Cell Viability Assay solution (Promega) was added. The luminescence signal was measured using EnVision (PerkinElmer) and the inhibitory rate (%) of the test compound was calculated with a well free of seeding of cell as 100% inhibition.

[2] = biological target: T1, human PRS protein (His-Avi-hEPRS (998-1512)) (Homo sapiens, UniProt P07814); assay: PRS inhibitory activity ([32P]pyrophosphate exchange enzyme assay); type: biochemical; conditions: 300 nM test compound; read-out: inhibitory rate (%) of PRS
T1 construct: to construct His-Avi-hEPRS (998-1512) expression plasmid; His tag (N); Avi tag (N); TEV cleavage site (ENLYFQG, then S; inferred from the forward primer hEPRS-TEV-NheF) (N); made in house; host or cells: E. coli BL21(DE3)
T1 sequence (P07814 998-1512 limits assumed): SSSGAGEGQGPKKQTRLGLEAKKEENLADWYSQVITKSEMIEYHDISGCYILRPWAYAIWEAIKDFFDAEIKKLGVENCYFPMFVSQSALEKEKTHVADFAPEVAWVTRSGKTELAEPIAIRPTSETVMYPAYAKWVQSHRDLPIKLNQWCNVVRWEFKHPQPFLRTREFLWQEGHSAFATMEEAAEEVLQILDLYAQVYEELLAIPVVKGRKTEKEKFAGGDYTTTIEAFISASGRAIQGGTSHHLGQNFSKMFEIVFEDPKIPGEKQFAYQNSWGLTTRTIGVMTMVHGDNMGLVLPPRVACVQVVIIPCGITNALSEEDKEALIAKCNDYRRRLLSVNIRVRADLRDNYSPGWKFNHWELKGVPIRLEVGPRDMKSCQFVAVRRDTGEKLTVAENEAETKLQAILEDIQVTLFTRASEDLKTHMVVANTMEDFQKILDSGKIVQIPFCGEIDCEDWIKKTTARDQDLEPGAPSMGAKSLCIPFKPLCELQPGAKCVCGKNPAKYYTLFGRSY
Experimental: The PRS inhibitory activity of the compounds of the present invention was evaluated by the following method.
An expression plasmid of Catalytic Domain of human EPRS was obtained by PCR using human skeletal muscle cDNA Library (Takara Bio Inc.) as a template and 2 kinds of Primers 5′-[…]-3′ (hEPRS-TEV-NheF) (SEQ ID NO: 1) and 5′-[…]-3′ (hEPRS-St-Not-R) (SEQ ID NO: 2). PCR was performed using PrimeStar GXL DNA Polymerase (Takara Bio Inc.) and included (1) 98° C., 1 min, (2) 35 cycles of 98° C., 10 sec, 65° C., 10 sec, 72° C., 1 min, and (3) reaction at 72° C., 1 min. This was cleaved with Nhe I and Not I (Takara Bio Inc.) and inserted using Ligation High (TOYOBO CO., LTD.) into the Nhe I/Not I site of pET21a (Novagen) with His-Avitag inserted thereinto. This was introduced into ECOS JM109 (NIPPON GENE CO., LTD.) to construct His-Avi-hEPRS (998-1512) expression plasmid.
Recombinant human PRS protein was prepared by transforming the His-Avi-hEPRS (998-1512) expression plasmid prepared above into ECOS Competent E. coli BL21(DE3) (NIPPON GENE CO., LTD.). Escherichia coli obtained by transformation was inoculated into 300 mL of LB medium (1% peptone, 0.5% yeast extract, 0.5% sodium chloride, 0.01% ampicillin) and cultured at 30° C. for 16 hr. The obtained culture medium was transferred into a jar culture tank charged with 6 L of the main fermentation medium (0.3% potassium dihydrogen phosphate, 0.6% disodium hydrogen phosphate, 0.1% ammonium chloride, 0.05% sodium chloride, 0.024% magnesium sulfate, 0.02% NEWPOL LB-625, 1.5% sorbitol, 1.5% casamino acid, 0.5% yeast extract, 0.01% ampicillin) and culturing was started at 37° C., quantity of airflow 5 L/min, stirring rotating speed 400 rpm. At the time point when the turbidity of the culture medium reached about 550 Klett units, the culture temperature was lowered to 16° C., isopropyl-β-D-thiogalactopyranoside (IPTG) was added to the final concentration 0.1 mM, and culturing was performed for another 16 hr to induce expression of human PRS. After completion of culturing, the culture medium was centrifuged at 5,000 rpm for 10 min. The obtained human PRS expressing Escherichia coli was suspended in a buffer containing 50 mM Tris-HCl (pH 8.0), 150 mM NaCl, 1 mM DTT, 5 U/ml Benzonase, 20 mM Imidazole and sonicated using Sonifier (BRANSON). The homogenate was centrifuged (33,000×G, 60 min, Beckman Coulter), the obtained supernatant was subjected to adsorption by passage through Ni-NTA Superflow (QIAGEN) column equilibrated in advance with 50 mM Tris-HCl (pH 8.0), 300 mM NaCl, 1 mM DTT, and elution was performed with a buffer containing 50 mM Tris-HCl (pH 8.0), 300 mM NaCl, 1 mM DTT, 250 mM Imidazole. Furthermore, gel filtration was performed using Superdex200 pg column equilibrated in advance with a buffer containing 50 mM Tris-HCl (pH 8.0), 150 mM NaCl, 1 mM DTT, 10% glycerol to give purified human PRS protein. The protein concentration was measured using BCA Protein Assay Kit (PIERCE) and BSA as the standard.
A test compound was dissolved in 5 μL of an assay buffer (50 mM Tris-HCl (pH 7.5), 20 mM KCl, 1 mM DTT, 0.01% Tween 20) and incubated for 60 min with 5 μL of 40 nM human PRS protein dissolved in the assay buffer containing 40 mM MgCl2. An enzyme reaction of the human PRS protein was started by adding 10 μL of a substrate solution containing 300 μM ATP, 160 μM L-Proline, 400 μM pyrophosphate, [^32P]pyrophosphate (PerkinElmer) prepared to 1 MBq/mL. After incubation at room temperature for 30 min, the reaction was discontinued by adding 50 μL of discontinuation/washing solution (1M HCl, 200 mM sodium pyrophosphate) to the reaction mixture. The reaction solution was transferred to a filter plate (Merck Millipore, Billerica, Mass.) previously added with 200 μL of charcoal solution (0.5% HCl solution containing 10% charcoal (w/v)). […]

| Compound | inhibition at 1 µM [1] | inhibition at 0.3 µM [2] |
| --- | --- | --- |
| Cn1cc(-c2cc(F)cc(CNC(=O)c3nccc4nc(C5CCCC5)n(C)c34)c2)cn1 [Example 88, 2-cyclopentyl-N-(3-fluoro-5-(1-methyl-1H-pyrazol-4-yl)benzyl)-3-methyl-3H-imidazo[4,5-c]pyridine-4-carboxamide] | 99% | 101% |
| Cn1c(C2CCCC2)nc2ncnc(C(=O)NCc3cc(F)cc(-c4cnn(C(C)(C)CO)c4)c3)c21 [Example 30, 8-cyclopentyl-N-(3-fluoro-5-(1-(1-hydroxy-2-methylpropan-2-yl)-1H-pyrazol-4-yl)benzyl)-7-methyl-7H-purine-6-carboxamide] | 99% | 102% |
| Cn1cc(-c2cc(F)cc(CNC(=O)c3nccc4nc(C5CCCC5)n(CC(N)=O)c34)c2)cn1 [Example 128, 3-(2-amino-2-oxoethyl)-2-cyclopentyl-N-(3-fluoro-5-(1-methyl-1H-pyrazol-4-yl)benzyl)-3H-imidazo[4,5-c]pyridine-4-carboxamide] | 97% | 102% |
| Cn1c(C2CCCC2)nc2ccnc(C(=O)NCc3cc(F)cc(-c4cc[nH]c(=O)c4)c3)c21 [Example 97, 2-cyclopentyl-N-(3-fluoro-5-(2-oxo-1,2-dihydropyridin-4-yl)benzyl)-3-methyl-3H-imidazo[4,5-c]pyridine-4-carboxamide] | 98% | 101% |
| Cn1cc(-c2cc(F)cc(CNC(=O)c3nccc4nc(C5CCOC5)n(C)c34)c2)cn1 (stereo not shown) [Example 117, N-(3-fluoro-5-(1-methyl-1H-pyrazol-4-yl)benzyl)-3-methyl-2-(tetrahydrofuran-3-yl)-3H-imidazo[4,5-c]pyridine-4-carboxamide] | 78% | 100% |
| Cn1cc(-c2csc(CNC(=O)c3cc(N4CC[C@@](C#N)(C5CC5)C4=O)ccn3)c2)cn1 [Example 157, 4-((3S)-3-cyano-3-cyclopropyl-2-oxopyrrolidin-1-yl)-N-((4-(1-methyl-1H-pyrazol-4-yl)-2-thienyl)methyl)pyridine-2-carboxamide] | – | 85% |
| COc1cc(N2CC[C@@](C#N)(C3CC3)C2=O)cc(C(=O)NCc2cc(F)cc(-c3cnn(C)c3)c2)n1 [Example 224, 4-((3S)-3-cyano-3-cyclopropyl-2-oxopyrrolidin-1-yl)-N-(3-fluoro-5-(1-methyl-1H-pyrazol-4-yl)benzyl)-6-methoxypyridine-2-carboxamide] | – | 74% |
| Cn1ncc2cccc(CNC(=O)c3ncnc4nc(C5CCCC5)n(C)c34)c21 [Example 21, 8-cyclopentyl-7-methyl-N-((1-methyl-1H-indazol-7-yl)methyl)-7H-purine-6-carboxamide] | – | 92% |
| Cn1cc(-c2cc(F)cc(CNC(=O)c3nccc4nc(C5CCCC5)n(C5CC5)c34)c2)cn1 [Example 108, 2-cyclopentyl-3-cyclopropyl-N-(3-fluoro-5-(1-methyl-1H-pyrazol-4-yl)benzyl)-3H-imidazo[4,5-c]pyridine-4-carboxamide] | – | 102% |
| Cn1cc(-c2cc(F)cc(CNC(=O)c3nc(Cl)nc4nc(C5CCCC5)[nH]c34)c2)cn1 [Example 12, 2-chloro-8-cyclopentyl-N-(3-fluoro-5-(1-methyl-1H-pyrazol-4-yl)benzyl)-7H-purine-6-carboxamide] | – | 77% |
| Cc1cc(N2CCN(C(C)C)C2=O)cc(C(=O)NCc2cc(F)cc(-c3cnn(C)c3)c2)n1 [Example 226, N-(3-fluoro-5-(1-methyl-1H-pyrazol-4-yl)benzyl)-4-(3-isopropyl-2-oxoimidazolidin-1-yl)-6-methylpyridine-2-carboxamide] | – | 91% |
| Cn1ncc2c(CNC(=O)c3nccc4nc(C5CCCC5)[nH]c34)cccc21 [Example 93, 2-cyclopentyl-N-((1-methyl-1H-indazol-4-yl)methyl)-3H-imidazo[4,5-c]pyridine-4-carboxamide] | – | 91% |
| Cn1cc(-c2cc(F)cc(CNC(=O)c3cc(N4CC[C@@](C#N)(C5CC5)C4=O)ccn3)c2)ccc1=O [Example 150, 4-((3S)-3-cyano-3-cyclopropyl-2-oxopyrrolidin-1-yl)-N-(3-fluoro-5-(1-methyl-6-oxo-1,6-dihydropyridin-3-yl)benzyl)pyridine-2-carboxamide] | – | 87% |
| Cc1cc(N2OCC(C)(C)C2=O)cc(C(=O)NCc2cc(F)cc(-c3cnn(C)c3)c2)n1 [Example 179, 4-(4,4-dimethyl-3-oxo-1,2-oxazolidin-2-yl)-N-(3-fluoro-5-(1-methyl-1H-pyrazol-4-yl)benzyl)-6-methylpyridine-2-carboxamide] | – | 93% |
| Cn1cc(-c2cc(F)cc(CNC(=O)c3cc(N4CC[C@@](C#N)(C5CC5)C4=O)ccn3)c2)cn1 [Example 149, 4-((3S)-3-cyano-3-cyclopropyl-2-oxopyrrolidin-1-yl)-N-(3-fluoro-5-(1-methyl-1H-pyrazol-4-yl)benzyl)pyridine-2-carboxamide] | – | 95% |
| Cc1nc(C(=O)NCc2cc(F)cc(-c3cnn(C)c3)c2)c2[nH]c(C3CCCC3)nc2n1 [Example 13, 8-cyclopentyl-N-(3-fluoro-5-(1-methyl-1H-pyrazol-4-yl)benzyl)-2-methyl-7H-purine-6-carboxamide] | – | 86% |
| Cn1cc(-c2cc(CNC(=O)c3nccc4nc(C5CCCC5)n(C)c34)ccn2)cn1 [Example 136, 2-cyclopentyl-3-methyl-N-((2-(1-methyl-1H-pyrazol-4-yl)pyridin-4-yl)methyl)-3H-imidazo[4,5-c]pyridine-4-carboxamide] | – | 77% |
